Measured values as given in US6117859A, “Method of relieving chronic inflammation by using 5-alkylsulfonylsalicylanilides” (The Research Foundation of State University of New York, priority 1999, dated 2000).

Test system: TPA treated mouse ear skin
Experiment: Histopathology of ear biopsies after multiple doses of TPA (epidermal thickness, dermal cellularity)
Assay type: in vivo, mouse (female CD-1)
Experimental: The assay used female CD-1 mice (7-9 weeks of age). Following a 2-week quarantine, mice were randomly assigned to test groups (5 mice/groups). TPA (10 uL of 0.01 TPA in acetone) was administered to both the inner and outer surface of each ear (2μg/ear) on day 0,2,4,7, and 9 on protocol. On Day 7,8 and 9, two applications of test article were applied to each ear 2 and 4 hours after dosing with TPA. The test articles were administered in 10 uL aliquots to both the inner and outer surface of each ear (20 μl total/dose). The candidate drugs were tested at several different concentrations (e.g., 5, 1.25, and 0.125 mg/ear) to determine a maximum effective dose within a range that could be effectively applied. Hydrocortisone-17-valerate (HCV, 20μg/ear) was employed as a positive control. Mice were sacrificed at Day 10 on protocol and uniform punch biopsies (approximately 8 mm dia.) were taken from each ear. While on protocol, dermal irritation was scored semiquantitatively at Day 1,3,5,8, and 10.
Inhibition of TPA stimulated increased ear weight was used as an initial measure of efficacy for all of the agents tested. One biopsy from each mouse was also quick frozen and stored at -70° C. for later assay of myleoperoxidase, an enzyme associated with infiltrating PMN, or other measure of efficacy. The remaining biopsy from each mouse treated with Trifluorosal or HCV was fixed in formalin and processed for histopathologic evaluation, including measurement of cellular infiltration (PMNs, endothelial cells, macrophages) and epidermal thickness at 20 random sites along the length of the specimen.
In order to confirm the subjective observations, quantitative determinations of 3 parameters (epidermal thickness, dermal thickness, and dermal cellularity) in the skin of negative controls (acetone), positive controls (TPA), and TPA treated skin treated with 3 doses of test article (Trifluorosal) and hydrocortisone were carried out. Epidermal thickness reflects the reactive proliferative activity induced by TPA in the […]: dermal thickness reflects primarily Ad edema but may also be affected by other phenomena, such as formation of granulation tissue, collagen synthesis, the activity of myofibroblasts, etc. Cellularity of the dermis is frequently used as a surrogate marker of inflammatory changes in the dermis.
Determination of the epidermal thickness was performed under the microscope with a calibrated scale placed in the eyepiece. Ten determinations were carried out in the epidermis covering the outside of the ear using a 40× objective and a 10× eyepiece (400× total). The measurements were taken from the basal side of the basal layer (basement membrane) to the outer side of the last nucleated cell of the […]. The average of the 10 measurements expressed in microns was entered in the table.
Determination of dermal thickness was performed using a similar technique. To avoid variability caused by the difference in sizes between the base and tip of the ear, only 3 measurements were performed in the center of the sample. The measurements were performed from the basement membrane of the external and internal epithelial and therefore include, in addition to both dermis (external and internal), the cartilage.
Cellularity of the dermis was calculated by projecting a calibrated grid into the dermis and counting cells in the known area of the dermis. Areas of hair follicles or sebaceous glands were avoided. Five fields were counted and the results were adjusted to the number of cells in 1,000 square microns.
The results of individual animals were entered in the table and the averages and standard deviation were calculated using an EXCEL database. In addition, the results were also expressed as a percentage of the control (acetone treated). Furthermore, the percentage of inhibition of the test articles were calculated using the following formula: [formula]

In the case of `CCCCCCCCCCCCS(=O)(=O)c1ccc(O)c(C(=O)Nc2cccc(C(F)(F)F)c2)c1` [TMF-12], the “% Inhibition, Dermal Cellularity” value (1.25 mg/ear) is reported as 24.6%, the “% Inhibition, Epidermal Thickness” value (1.25 mg/ear) is reported as 48.0% and the “% Inhibition, Dermal Cellularity” value (2.50 mg/ear) is reported as 64.3%. For the same compound, the “% Inhibition, Epidermal Thickness” value (2.50 mg/ear) was 11.4%, the “% Inhibition, Dermal Cellularity” value (5.00 mg/ear) was 47.6% and the “% Inhibition, Epidermal Thickness” value (5.00 mg/ear) was 30.0%. For the same compound, the “Blood vessel prominence (in words)” value (histopathology) was “Blood vessels were not as prominent”, the “Cellularity of the dermis (in words)” value (histopathology, FIG. 1) was “reduced the epidermal thickness as well as the cellularity of the dermis” and the “Epidermal thickness (in words)” value (histopathology, FIG. 1) was “reduced the epidermal thickness”.
